Experimental data reported in ChEMBL document CHEMBL1146135, “Benzimidazole inhibitors of hepatitis C virus NS5B polymerase: identification of 2-[(4-diarylmethoxy)phenyl]-benzimidazole” (Bioorg Med Chem Lett, 2006).
pIC50: −log10 of the molar value.

Assays:
[1] = target: T1, RNA-directed RNA polymerase (Hepacivirus hominis, UniProt O39930); assay: Inhibitory activity against HCV 1b NS5B RNA dependent RNA polymerase; parameters: species or system Hepatitis C virus subtype 1b
[2] = target: T1, RNA-directed RNA polymerase; assay: Inhibitory activity against HCV 1a NS5B RNA dependent RNA polymerase
[3] = target: DNA polymerase beta (Homo sapiens, UniProt P06746); assay: Inhibitory activity against DNA polymerase beta
[4] = target: T2, DNA polymerase alpha catalytic subunit (Homo sapiens, UniProt P09884); assay: Inhibitory activity against DNA polymerase alpha
T2 sequence (P09884 whole entry): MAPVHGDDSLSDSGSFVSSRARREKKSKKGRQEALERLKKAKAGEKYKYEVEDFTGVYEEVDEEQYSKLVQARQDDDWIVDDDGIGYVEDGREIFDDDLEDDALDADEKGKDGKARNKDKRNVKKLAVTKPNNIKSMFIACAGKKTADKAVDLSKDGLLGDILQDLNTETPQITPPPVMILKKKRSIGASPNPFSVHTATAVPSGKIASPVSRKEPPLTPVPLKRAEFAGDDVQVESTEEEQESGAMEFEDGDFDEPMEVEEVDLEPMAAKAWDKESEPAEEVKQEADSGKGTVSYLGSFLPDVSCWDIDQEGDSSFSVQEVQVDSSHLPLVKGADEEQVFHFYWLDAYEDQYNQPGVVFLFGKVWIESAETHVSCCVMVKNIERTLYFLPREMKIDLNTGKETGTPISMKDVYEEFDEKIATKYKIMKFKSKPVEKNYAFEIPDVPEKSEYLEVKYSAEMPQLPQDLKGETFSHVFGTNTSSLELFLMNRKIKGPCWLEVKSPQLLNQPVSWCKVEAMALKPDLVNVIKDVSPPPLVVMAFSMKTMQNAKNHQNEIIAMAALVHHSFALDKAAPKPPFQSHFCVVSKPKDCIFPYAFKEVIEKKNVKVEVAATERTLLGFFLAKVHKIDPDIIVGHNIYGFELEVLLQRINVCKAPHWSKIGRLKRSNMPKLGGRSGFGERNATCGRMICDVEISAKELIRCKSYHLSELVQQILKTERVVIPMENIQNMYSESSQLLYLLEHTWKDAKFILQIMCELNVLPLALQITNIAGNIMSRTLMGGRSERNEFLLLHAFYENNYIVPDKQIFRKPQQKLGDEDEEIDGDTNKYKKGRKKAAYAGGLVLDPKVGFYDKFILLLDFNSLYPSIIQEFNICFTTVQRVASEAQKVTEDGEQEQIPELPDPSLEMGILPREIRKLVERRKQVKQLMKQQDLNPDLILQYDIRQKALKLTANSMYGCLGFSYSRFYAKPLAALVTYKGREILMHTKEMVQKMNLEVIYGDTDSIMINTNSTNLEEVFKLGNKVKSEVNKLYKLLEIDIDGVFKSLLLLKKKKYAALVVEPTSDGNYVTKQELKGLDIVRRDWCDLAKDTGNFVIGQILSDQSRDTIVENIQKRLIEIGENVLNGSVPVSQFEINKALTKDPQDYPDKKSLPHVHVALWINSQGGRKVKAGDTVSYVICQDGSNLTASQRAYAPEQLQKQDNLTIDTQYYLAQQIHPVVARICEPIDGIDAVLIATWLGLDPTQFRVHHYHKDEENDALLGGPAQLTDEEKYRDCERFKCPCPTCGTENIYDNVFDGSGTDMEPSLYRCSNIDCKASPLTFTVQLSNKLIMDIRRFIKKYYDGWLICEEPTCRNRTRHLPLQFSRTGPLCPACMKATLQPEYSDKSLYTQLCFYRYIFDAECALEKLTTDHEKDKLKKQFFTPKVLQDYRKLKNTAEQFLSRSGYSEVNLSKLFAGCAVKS

[5] = test system: Huh-5-2; assay: Cytotoxicity against Huh5-2 cells by MTT assay; type: functional; details: Homo sapiens
[6] = target: RNA-directed RNA polymerase (Hepacivirus hominis) (UniProt O39930); assay: Inhibitory activity against HCV 1b NS5B RNA dependent RNA polymerase at 10 uM; details: Hepatitis C virus subtype 1b
Chain of RNA-directed RNA polymerase (Hepacivirus hominis) (O39930 1-591): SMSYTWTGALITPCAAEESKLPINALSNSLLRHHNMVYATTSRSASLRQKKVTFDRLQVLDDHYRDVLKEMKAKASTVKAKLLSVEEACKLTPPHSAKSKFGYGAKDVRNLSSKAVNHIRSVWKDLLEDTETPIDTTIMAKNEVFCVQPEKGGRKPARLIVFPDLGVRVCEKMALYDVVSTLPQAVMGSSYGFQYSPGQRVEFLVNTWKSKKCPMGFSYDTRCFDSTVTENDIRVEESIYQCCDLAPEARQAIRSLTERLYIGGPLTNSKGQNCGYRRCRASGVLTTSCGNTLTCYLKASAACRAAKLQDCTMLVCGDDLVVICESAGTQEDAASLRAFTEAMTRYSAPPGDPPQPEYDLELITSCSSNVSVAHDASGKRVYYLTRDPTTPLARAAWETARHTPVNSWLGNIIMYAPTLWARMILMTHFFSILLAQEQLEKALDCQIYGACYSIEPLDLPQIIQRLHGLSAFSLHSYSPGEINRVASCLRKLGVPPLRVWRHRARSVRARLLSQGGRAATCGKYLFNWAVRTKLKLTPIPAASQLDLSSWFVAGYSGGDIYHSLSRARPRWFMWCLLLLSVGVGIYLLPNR

T1 sequence (O39930 whole entry): as the sequence (O39930 1-591) above

SMILES	pIC50 [1]	pIC50 [2]	pIC50 [3]	pIC50 [4]	inhibition [6] [%]	CC50 [5] [nM]
COc1ccc(COc2ccc(-c3nc4cc(C(=O)O)ccc4n3C3CCCC3)cc2)cc1	5.68					
Cc1ccc(C(Oc2ccc(-c3nc4cc(C(=O)O)ccc4n3C3CCCCC3)cc2)c2ccc(C)cc2)cc1	5.92	5.51	< 5.00	< 5.00		23500
O=C(O)c1ccc2c(c1)nc(-c1ccc(OCc3cc(Cl)cc(Cl)c3)cc1)n2C1CCCC1	5.77					
O=C(O)c1ccc2c(c1)nc(-c1ccc(OC(c3cccnc3)c3cccnc3)cc1F)n2C1CCCCC1	5.96	5.66	< 5.00	< 5.00		> 50000
O=C(O)c1ccc2c(c1)nc(-c1ccc(OCc3ccc(Cl)cc3)cc1)n2C1CCCC1	5.92					
O=C(O)c1ccc2c(c1)nc(-c1ccc(OC(c3ccc(Cl)cc3)c3ccc(Cl)cc3)cc1)n2C1CCCCC1	6.03	5.62	< 5.00	< 5.00		23700
O=C(O)c1ccc2c(c1)nc(-c1ccc(OCc3cccc(Cl)c3)cc1)n2C1CCCC1	5.80					
O=C(O)c1ccc2c(c1)nc(-c1ccc(OCc3ccccc3)cc1)n2C1CCCCC1	5.85					
O=C(O)c1ccc2c(c1)nc(-c1ccc(OCc3ccc(C(F)(F)F)cc3)cc1)n2C1CCCC1	5.74					
CC(C)(C)c1ccc(COc2ccc(-c3nc4cc(C(=O)O)ccc4n3C3CCCC3)cc2)cc1	5.82					
NC(=O)c1ccc2c(c1)nc(-c1ccc(OCc3ccccc3)cc1)n2C1CCCC1					47	
O=C(O)c1ccc2c(c1)nc(-c1ccc(OCc3ccncc3)cc1)n2C1CCCC1	5.38					
O=C(O)c1ccc2c(c1)nc(-c1ccc(OCc3ccc(Cl)c(Cl)c3)cc1)n2C1CCCC1	5.89					
O=C(O)c1ccc2c(c1)nc(-c1ccc(OCc3ccccc3)cc1)n2C1CCCCCC1	5.74					
Cc1ccc(COc2ccc(-c3nc4cc(C(=O)O)ccc4n3C3CCCC3)cc2)cc1	5.80					
O=C(O)c1ccc(COc2ccc(-c3nc4cc(C(=O)O)ccc4n3C3CCCC3)cc2)cc1	5.17					
O=C(O)c1ccc2c(c1)nc(-c1ccc(OCc3ccccc3Cl)cc1)n2C1CCCC1	5.64					
O=C(O)c1ccc2c(c1)nc(-c1ccc(OCCCCCc3ccccc3)cc1)n2C1CCCCC1	6.00					
O=C(O)c1ccc2c(c1)nc(-c1ccc(OCc3ccccc3)cc1)n2C1CCCC1	5.49					
O=C(O)c1ccc2c(c1)nc(-c1ccc(OCC(c3ccccc3)c3ccccc3)cc1)n2C1CCCCC1	6.01					
O=C(O)c1ccc2c(c1)nc(-c1ccc(OCCOc3ccccc3)cc1)n2C1CCCCC1	5.92					

Now from value to compound, other results behind:

pIC50 [1]	pIC50 [2]	pIC50 [3]	pIC50 [4]	inhibition [6] [%]	SMILES	CC50 [5] [nM]
6.41					O=C(O)c1ccc2c(c1)nc(-c1ccc(OCc3cccc(-c4ccccc4)c3)cc1)n2C1CCCCC1	
6.10	5.77	< 5.00	< 5.00		O=C(O)c1ccc2c(c1)nc(-c1ccc(OC(c3ccc(F)cc3)c3ccc(F)cc3)cc1)n2C1CCCCC1	27700
6.12	5.72	< 5.00	< 5.00		O=C(O)c1ccc2c(c1)nc(-c1ccc(OC(c3cccc(F)c3)c3cccc(F)c3)cc1)n2C1CCCCC1	24400
6.52	6.08	< 5.00	< 5.00		O=C(O)c1ccc2c(c1)nc(-c1ccc(OC(c3ccc(F)cc3)c3ccc(F)cc3)cc1F)n2C1CCCCC1	27200
6.52					O=C(O)c1ccc2c(c1)nc(-c1ccc(OCc3ccccc3-c3ccccc3)cc1)n2C1CCCCC1	
6.57	6.10	< 5.00	< 5.00		O=C(O)c1ccc2c(c1)nc(-c1ccc(OC(c3ccccc3)c3cccnc3)cc1F)n2C1CCCCC1 (stereo not drawn)	> 50000
7.02	6.10	< 5.00	< 5.00		O=C(O)c1ccc2c(c1)nc(-c1ccc(OC(c3ccccc3)c3ccccc3)cc1F)n2C1CCCCC1	27300
6.19	6.02	< 5.00	< 5.00		CN(C)C(=O)c1ccc(C(Oc2ccc(-c3nc4cc(C(=O)O)ccc4n3C3CCCCC3)c(F)c2)c2ccc(C(=O)N(C)C)cc2)cc1	> 50000
6.10					O=C(O)c1ccc2c(c1)nc(-c1ccc(OCCCc3ccccc3)cc1)n2C1CCCCC1	
6.24					O=C(O)c1ccc2c(c1)nc(-c1ccc(Oc3ccccc3-c3ccccc3)cc1)n2C1CCCCC1	
6.23	5.89	< 5.00	< 5.00		O=C(O)c1ccc2c(c1)nc(-c1ccc(OC(c3ccccc3)c3ccccc3)cc1)n2C1CCCCC1	31900
6.47					O=C(O)c1ccc2c(c1)nc(-c1ccc(OCCc3ccccc3-c3ccccc3)cc1)n2C1CCCCC1	
